Reference: patent US11974985B2, “Composition of aminopyran derivative” (HAISCO PHARMACEUTICAL GROUP CO., LTD., priority 2018, dated 2024)

Test: Compatibility test of compound of formula (I) with lactose, change of impurities
Format: physicochemical
Details: room temperature
Method: A compatibility test was carried out with lactose (a reducing sugar) and the compound of formula (I) at room temperature in which, after both were mixed in a certain ratio, the changes of impurity in the compound of formula (I) were tested.

- Main peak area (%): 99.247%
- Number of impurities: 5
- Total impurities (%): 0.753%
Compound: CS(=O)(=O)n1cc2c(n1)CN([C@@H]1C[C@H](N)[C@@H](c3cc(F)ccc3F)O[C@@H]1C(F)(F)F)C2 [Compound of formula (I)]
